Consider 14 compounds from US20240218022A1, “ANTI-VISTA MACROCYCLIC PEPTIDES AND COMPOSITIONS” (BRISTOL-MYERS SQUIBB COMPANY, priority 2022, published 2024).

pIC50: −log10 of the molar value. Where two headings read alike, the source gives them in different places. Positions of bridges follow the written chain, without caps; N, C: chain ends. Non-standard residues stand in square brackets, D forms with d. Residues, ends and D or L forms follow the SMILES beside them. ξ: configuration not given here. *: point of attachment. Phe(4-CONH2) = NC(=O)c1ccc(C[C@H](N)C(=O)O)cc1; Phe(2,4-F2) = N[C@@H](Cc1ccc(F)cc1F)C(=O)O; Phe(3-Br) = N[C@@H](Cc1cccc(Br)c1)C(=O)O; Phe(4-Me) = Cc1ccc(C[C@H](N)C(=O)O)cc1; 2Nal = N[C@@H](Cc1ccc2ccccc2c1)C(=O)O; Ahp(2) = CCCCC[C@H](N)C(=O)O; NMeNle = CCCC[C@H](NC)C(=O)O; Tle = CC(C)(C)[C@H](N)C(=O)O; NHexGly = CCCCCCNCC(=O)O; Nle = CCCC[C@H](N)C(=O)O; ξS = NC(CO)C(=O)O; Allyl = C=CC*

This test has as its target T1, mouse VISTA (mVISTA) (Mus musculus, UniProt Q9D659).
T1 construct: expressed in transfected cells; host or cells: Human embryonic kidney 293T cells
T1 sequence (Q9D659 33-308): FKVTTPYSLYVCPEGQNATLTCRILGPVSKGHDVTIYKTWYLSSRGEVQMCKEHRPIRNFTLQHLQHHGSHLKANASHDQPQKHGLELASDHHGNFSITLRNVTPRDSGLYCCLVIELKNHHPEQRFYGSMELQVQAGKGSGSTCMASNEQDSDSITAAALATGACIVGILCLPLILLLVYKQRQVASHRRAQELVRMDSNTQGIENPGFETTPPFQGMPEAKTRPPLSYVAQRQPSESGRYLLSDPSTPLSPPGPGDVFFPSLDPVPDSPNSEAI
As to the kind of experiment: Cell-Based Binding High-Content Assay For mVISTA (HC CBA mVISTA). As to conditions: read-out: HC CBA mVISTA IC50. Summed up:
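Competition of compound with a biotinylated peptide (final 2 nM, 30 min at RT) for binding to mVISTA on 293T cells, run under no-wash or wash (1 h compound preincubation then removal) formats. Readout by Alexa 647–streptavidin imaging on a high-content platform; four-parameter logistic fit gave IC50.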

What is called pIC50 is the IC50 on a negative log10 scale, so that one unit is a factor of ten. For the compound `CCCCCCN1CC(=O)N[C@@H](Cc2ccc(O)cc2)C(=O)N[C@@H](CC(C)C)C(=O)N[C@@H](CC(N)=O)C(=O)N[C@@H](CCCNC(=N)N)C(=O)N(C)[C@@H](CCCC)C(=O)N[C@@H](CCCCC)C(=O)N2CCC[C@H]2C(=O)N[C@@H](C(C)C)C(=O)N[C@@H](CO)C(=O)N[C@H](C(=O)NCC(N)=O)CSCC(=O)N[C@@H](Cc2ccc(C(N)=O)cc2)C(=O)N[C@@H](Cc2ccc(O)cc2)C(=O)N[C@@H](CC(=O)O)C1=O` [compound 1213] ({CH2CO}-[Phe(4-CONH2)]YD[NHexGly]YLNR[NMeNle][Ahp(2)]PVSCG-NH2; thioether N-14), the pIC50 was 7.57. As for `CCCCCCN1CC(=O)N[C@@H](Cc2ccc(O)cc2)C(=O)N[C@@H](CC(C)C)C(=O)N[C@@H](CC(N)=O)C(=O)N[C@@H](CCCNC(=N)N)C(=O)N(C)[C@@H](CCCC)C(=O)N[C@@H](CCCCC)C(=O)N2CCC[C@H]2C(=O)N[C@@H](C(C)C)C(=O)N[C@@H](CO)C(=O)N[C@H](C(=O)NCC(N)=O)CSCC(=O)N[C@@H](Cc2ccc(C)cc2)C(=O)N[C@@H](Cc2ccc(O)cc2)C(=O)N[C@@H](CC(=O)O)C1=O` [compound 1214] ({CH2CO}-[Phe(4-Me)]YD[NHexGly]YLNR[NMeNle][Ahp(2)]PVSCG-NH2; thioether N-14), the pIC50 is 7.63.

For the compound `CCCCCCN1CC(=O)N[C@@H](Cc2ccc(O)cc2)C(=O)N[C@@H](CC(C)C)C(=O)N[C@@H](CC(N)=O)C(=O)N[C@@H](CCCNC(=N)N)C(=O)N(C)[C@@H](CCCC)C(=O)N[C@@H](CCCCC)C(=O)N2CCC[C@H]2C(=O)N[C@@H](C(C)(C)C)C(=O)N[C@@H](CO)C(=O)N[C@H](C(=O)NCC(N)=O)CSCC(=O)N[C@@H](Cc2ccc(C)cc2)C(=O)N[C@@H](Cc2ccc(O)cc2)C(=O)N[C@@H](CC(=O)O)C1=O` [compound 1215] ({CH2CO}-[Phe(4-Me)]YD[NHexGly]YLNR[NMeNle][Ahp(2)]P[Tle]SCG-NH2; thioether N-14), the pIC50 is 7.78.

Take `CCCCCCN1CC(=O)N[C@@H](Cc2ccc(O)cc2)C(=O)N[C@@H](CCCCC)C(=O)N[C@@H](CC(N)=O)C(=O)N[C@@H](CCCNC(=N)N)C(=O)N(C)[C@@H](CCCC)C(=O)N[C@@H](CCCCC)C(=O)N2CCC[C@H]2C(=O)N[C@@H](C(C)C)C(=O)N[C@@H](CC(=O)O)C(=O)N[C@H](C(=O)NCC(=O)O)CSCC(=O)N[C@@H](Cc2ccc(F)cc2F)C(=O)N[C@@H](Cc2ccc(F)cc2F)C(=O)N[C@@H](CC(=O)O)C1=O` [compound 1216] ({CH2CO}-[Phe(2,4-F2)][Phe(2,4-F2)]D[NHexGly]Y[Ahp(2)]NR[NMeNle][Ahp(2)]PVDCG-OH; thioether N-14): the pIC50 was 7.89. In the case of `CCCCCCN1CC(=O)N[C@@H](Cc2ccc(O)cc2)C(=O)N[C@@H](CCCCC)C(=O)N[C@@H](CC(N)=O)C(=O)N[C@@H](CCCNC(=N)N)C(=O)N(C)[C@@H](CCCC)C(=O)N[C@@H](CCCCC)C(=O)N2CCC[C@H]2C(=O)N[C@@H](C(C)C)C(=O)N[C@@H](C(C)C)C(=O)N[C@H](C(=O)NCC(=O)O)CSCC(=O)N[C@@H](Cc2ccc(F)cc2F)C(=O)N[C@@H](Cc2ccc(F)cc2F)C(=O)N[C@@H](CC(=O)O)C1=O` [compound 1217] ({CH2CO}-[Phe(2,4-F2)][Phe(2,4-F2)]D[NHexGly]Y[Ahp(2)]NR[NMeNle][Ahp(2)]PVVCG-OH; thioether N-14), the pIC50 is 7.79. Same read-out and setting: to `CCCCCCN1CC(=O)N[C@@H](Cc2ccc(O)cc2)C(=O)N[C@@H](CCCCC)C(=O)N[C@@H](CC(N)=O)C(=O)N[C@@H](CCCNC(=N)N)C(=O)N(C)[C@@H](CCCC)C(=O)N[C@@H](CCCCC)C(=O)N2CCC[C@H]2C(=O)N[C@@H](C(C)C)C(=O)N[C@@H](CC(=O)O)C(=O)N[C@H](C(=O)NC(CO)C(=O)O)CSCC(=O)N[C@@H](Cc2ccc(F)cc2F)C(=O)N[C@@H](Cc2ccc(F)cc2F)C(=O)N[C@@H](CC(=O)O)C1=O` (some centres unmarked) [compound 1218] ({CH2CO}-[Phe(2,4-F2)][Phe(2,4-F2)]D[NHexGly]Y[Ahp(2)]NR[NMeNle][Ahp(2)]PVDC[ξS]-OH; thioether N-14) belongs 7.63.

Turning to `CCCCCCN1CC(=O)N[C@@H](Cc2ccc(O)cc2)C(=O)N[C@@H](CCCCC)C(=O)N[C@@H](CC(N)=O)C(=O)N[C@@H](CCCNC(=N)N)C(=O)N(C)[C@@H](CCCC)C(=O)N[C@@H](CCCCC)C(=O)N2CCC[C@H]2C(=O)N[C@@H](C(C)C)C(=O)N[C@@H](C(C)C)C(=O)N[C@H](C(=O)NC(CO)C(=O)O)CSCC(=O)N[C@@H](Cc2ccc(F)cc2F)C(=O)N[C@@H](Cc2ccc(F)cc2F)C(=O)N[C@@H](CC(=O)O)C1=O` (some centres unmarked) [compound 1219] ({CH2CO}-[Phe(2,4-F2)][Phe(2,4-F2)]D[NHexGly]Y[Ahp(2)]NR[NMeNle][Ahp(2)]PVVC[ξS]-OH; thioether N-14), the pIC50 was 7.47. On the same count and under the same terms, the figure for `CCCCCCN1CC(=O)N[C@@H](Cc2ccc(O)cc2)C(=O)N[C@@H](CCCCC)C(=O)N[C@@H](CC(N)=O)C(=O)N[C@@H](CCCNC(=N)N)C(=O)N(C)[C@@H](CCCC)C(=O)N[C@@H](CCCCC)C(=O)N2CCC[C@H]2C(=O)N[C@@H](C(C)C)C(=O)N[C@@H](C(C)C)C(=O)N[C@H](C(=O)NCC(=O)O)CSCC(=O)N[C@@H](Cc2ccc(F)cc2F)C(=O)N[C@@H](Cc2c[nH]c3ccccc23)C(=O)N[C@@H](CC(=O)O)C1=O` [compound 1220] ({CH2CO}-[Phe(2,4-F2)]WD[NHexGly]Y[Ahp(2)]NR[NMeNle][Ahp(2)]PVVCG-OH; thioether N-14) is 7.61; for `CCCCCCN1CC(=O)N[C@@H](Cc2ccc(O)cc2)C(=O)N[C@@H](CCCCC)C(=O)N[C@@H](CC(N)=O)C(=O)N[C@@H](CCCNC(=N)N)C(=O)N(C)[C@@H](CCCC)C(=O)N[C@@H](CCCCC)C(=O)N2CCC[C@H]2C(=O)N[C@@H](C(C)C)C(=O)N[C@@H](C(C)C)C(=O)N[C@H](C(=O)NC(CO)C(=O)O)CSCC(=O)N[C@@H](Cc2ccc(F)cc2F)C(=O)N[C@@H](Cc2c[nH]c3ccccc23)C(=O)N[C@@H](CC(=O)O)C1=O` (some centres unmarked) [compound 1221] ({CH2CO}-[Phe(2,4-F2)]WD[NHexGly]Y[Ahp(2)]NR[NMeNle][Ahp(2)]PVVC[ξS]-OH; thioether N-14) it is 7.69; for `C=CCOc1ccc(C[C@@H]2NC(=O)CSC[C@@H](C(=O)NCC(N)=O)NC(=O)[C@H](CO)NC(=O)[C@H](C(C)C)NC(=O)[C@@H]3CCCN3C(=O)[C@H](CCCCC)NC(=O)[C@H](CCCC)N(C)C(=O)[C@H](CCCNC(=N)N)NC(=O)[C@H](CC(N)=O)NC(=O)[C@H](CC(C)C)NC(=O)[C@H](Cc3ccc(O)cc3)NC(=O)CN(CCCCCC)C(=O)[C@H](CC(=O)O)NC(=O)[C@H](Cc3ccc(O)cc3)NC2=O)cc1` [compound 1222] ({CH2CO}-Y(Allyl)YD[NHexGly]YLNR[NMeNle][Ahp(2)]PVSCG-NH2; thioether N-14) it is 7.66.

On to `C=CCOc1ccc(C[C@@H]2NC(=O)CSC[C@@H](C(=O)NCC(N)=O)NC(=O)[C@H](CO)NC(=O)[C@H](C(C)(C)C)NC(=O)[C@@H]3CCCN3C(=O)[C@H](CCCCC)NC(=O)[C@H](CCCC)N(C)C(=O)[C@H](CCCNC(=N)N)NC(=O)[C@H](CC(N)=O)NC(=O)[C@H](CC(C)C)NC(=O)[C@H](Cc3ccc(O)cc3)NC(=O)CN(CCCCCC)C(=O)[C@H](CC(=O)O)NC(=O)[C@H](Cc3ccc(O)cc3)NC2=O)cc1` [compound 1223] ({CH2CO}-Y(Allyl)YD[NHexGly]YLNR[NMeNle][Ahp(2)]P[Tle]SCG-NH2; thioether N-14), for which the pIC50 is 7.74.

On to `CCCCCCN1CC(=O)N[C@@H](Cc2ccc(O)cc2)C(=O)N[C@@H](CC(C)C)C(=O)N[C@@H](CC(N)=O)C(=O)N[C@@H](CCCNC(=N)N)C(=O)N(C)[C@@H](CCCC)C(=O)N[C@@H](CCCCC)C(=O)N2CCC[C@H]2C(=O)N[C@@H](C(C)C)C(=O)N[C@@H](CO)C(=O)N[C@H](C(=O)NCC(N)=O)CSCC(=O)N[C@@H](Cc2cccc(Br)c2)C(=O)N[C@@H](Cc2ccc(O)cc2)C(=O)N[C@@H](CC(=O)O)C1=O` [compound 1224] ({CH2CO}-[Phe(3-Br)]YD[NHexGly]YLNR[NMeNle][Ahp(2)]PVSCG-NH2; thioether N-14), for which the pIC50 was 7.65. Same read-out and setting: the figure for `CCCCCCN1CC(=O)N[C@@H](Cc2ccc(O)cc2)C(=O)N[C@@H](CC(C)C)C(=O)N[C@@H](CC(N)=O)C(=O)N[C@@H](CCCNC(=N)N)C(=O)N(C)[C@@H](CCCC)C(=O)N[C@@H](CCCCC)C(=O)N2CCC[C@H]2C(=O)N[C@@H](C(C)(C)C)C(=O)N[C@@H](CO)C(=O)N[C@H](C(=O)NCC(N)=O)CSCC(=O)N[C@@H](Cc2cccc(Br)c2)C(=O)N[C@@H](Cc2ccc(O)cc2)C(=O)N[C@@H](CC(=O)O)C1=O` [compound 1225] ({CH2CO}-[Phe(3-Br)]YD[NHexGly]YLNR[NMeNle][Ahp(2)]P[Tle]SCG-NH2; thioether N-14) is 7.51. Consider `CCCCCCN1CC(=O)N[C@@H](Cc2ccc(O)cc2)C(=O)N[C@@H](CCCC)C(=O)N[C@@H](CC(=O)O)C(=O)N[C@@H](CCCNC(=N)N)C(=O)N[C@@H](CC(C)C)C(=O)N[C@@H](CCCCC)C(=O)N2CCC[C@H]2C(=O)N[C@@H](C(C)C)C(=O)N[C@@H](CC(=O)O)C(=O)N[C@H](C(=O)N[C@@H](CC(=O)O)C(N)=O)CSCC(=O)N[C@@H](Cc2ccc3ccccc3c2)C(=O)N[C@@H](Cc2c[nH]c3ccccc23)C(=O)N[C@@H](CC(=O)O)C1=O` [compound 1226] ({CH2CO}-[2Nal]WD[NHexGly]Y[Nle]DRL[Ahp(2)]PVDCD-NH2; thioether N-14), for which, under “cell-based binding high-content assay, mVISTA, the 15th table”, the pIC50 is 7.84.
